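Five compound concentrations were applied to cells in 96-well plates for 48 hours; endpoints were derived by simple linear interpolation of the resulting dose-response curve. At the TGI there is no net growth.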
How the values were obtained:
Experiment in all cases: DTP human tumour cell line panel, 48 h
DU-145 prostate = tested on: DU-145 prostate
UO-31 renal = tested on: UO-31 renal
RXF 393 renal = tested on: RXF 393 renal
MCF7 breast = tested on: MCF7 breast
CCRF-CEM leukemia = tested on: CCRF-CEM leukemia
HOP-62 NSCLC = tested on: HOP-62 NSCLC
SW-620 colon = tested on: SW-620 colon
OVCAR-5 ovarian = tested on: OVCAR-5 ovarian
IGROV1 ovarian = tested on: IGROV1 ovarian
NCI-H522 lung = tested on: NCI-H522 lung
OVCAR-3 ovarian = tested on: OVCAR-3 ovarian
786-0 renal = tested on: 786-0 renal
NCI/ADR-RES ovarian = tested on: NCI/ADR-RES ovarian
HCT-15 colon = tested on: HCT-15 colon
K-562 leukemia = tested on: K-562 leukemia
NCI-H23 lung = tested on: NCI-H23 lung
SF-295 CNS = tested on: SF-295 CNS
SK-MEL-28 melanoma = tested on: SK-MEL-28 melanoma
SNB-19 CNS = tested on: SNB-19 CNS
SF-268 CNS = tested on: SF-268 CNS
SN12C renal = tested on: SN12C renal
A549 NSCLC = tested on: A549 NSCLC
SR leukemia = tested on: SR leukemia
RPMI-8226 leukemia = tested on: RPMI-8226 leukemia
HS 578T breast = tested on: HS 578T breast
T-47D breast = tested on: T-47D breast
MDA-MB-435 = tested on: MDA-MB-435
HT29 colon = tested on: HT29 colon
U251 CNS = tested on: U251 CNS
MDA-N = tested on: MDA-N
SF-539 CNS = tested on: SF-539 CNS
A498 renal = tested on: A498 renal
HCC-2998 colon = tested on: HCC-2998 colon
MALME-3M melanoma = tested on: MALME-3M melanoma
SK-OV-3 ovarian = tested on: SK-OV-3 ovarian
OVCAR-8 ovarian = tested on: OVCAR-8 ovarian
SK-MEL-2 melanoma = tested on: SK-MEL-2 melanoma
OVCAR-4 ovarian = tested on: OVCAR-4 ovarian
COLO 205 colon = tested on: COLO 205 colon
EKVX NSCLC = tested on: EKVX NSCLC
UACC-257 melanoma = tested on: UACC-257 melanoma
M14 melanoma = tested on: M14 melanoma
NCI-H460 lung = tested on: NCI-H460 lung
MOLT-4 leukemia = tested on: MOLT-4 leukemia
HL-60(TB) leukemia = tested on: HL-60(TB) leukemia
KM12 colon = tested on: KM12 colon
HOP-92 NSCLC = tested on: HOP-92 NSCLC
ACHN renal = tested on: ACHN renal
PC-3 prostate = tested on: PC-3 prostate
LOX IMVI melanoma = tested on: LOX IMVI melanoma
SK-MEL-5 melanoma = tested on: SK-MEL-5 melanoma
UACC-62 melanoma = tested on: UACC-62 melanoma
TK-10 renal = tested on: TK-10 renal
CAKI-1 renal = tested on: CAKI-1 renal
NCI-H226 lung = tested on: NCI-H226 lung
MDA-MB-231 breast = tested on: MDA-MB-231 breast
HCT-116 colon = tested on: HCT-116 colon
SNB-75 CNS = tested on: SNB-75 CNS
BT-549 breast = tested on: BT-549 breast

In the case of O=c1[nH]nc(Cc2ccc(Cl)cc2)n1O, the TGI (DU-145 prostate) is reported as > 100 µM, the TGI (UO-31 renal) is reported as > 100 µM and the TGI (RXF 393 renal) is reported as > 100 µM. The TGI (MCF7 breast) was > 100 µM, the TGI (CCRF-CEM leukemia) was > 100 µM and the TGI (HOP-62 NSCLC) was > 100 µM. The TGI (SW-620 colon) was > 100 µM, the TGI (OVCAR-5 ovarian) was > 100 µM and the TGI (IGROV1 ovarian) was > 100 µM. For the same compound, the TGI (NCI-H522 lung) was > 100 µM, the TGI (OVCAR-3 ovarian) was > 100 µM and the TGI (786-0 renal) was > 100 µM. The TGI (NCI/ADR-RES ovarian) was > 100 µM, the TGI (HCT-15 colon) was > 100 µM and the TGI (K-562 leukemia) was > 100 µM. For the same compound, the TGI (NCI-H23 lung) was > 100 µM, the TGI (SF-295 CNS) was > 100 µM and the TGI (SK-MEL-28 melanoma) was > 100 µM. The TGI (SNB-19 CNS) was > 100 µM, the TGI (SF-268 CNS) was > 100 µM and the TGI (SN12C renal) was > 100 µM. For the same compound, the TGI (A549 NSCLC) was > 100 µM, the TGI (SR leukemia) was > 100 µM and the TGI (RPMI-8226 leukemia) was > 100 µM. For the same compound, the TGI (HS 578T breast) was > 100 µM, the TGI (T-47D breast) was > 100 µM and the TGI (MDA-MB-435) was > 100 µM. For the same compound, the TGI (HT29 colon) was > 100 µM, the TGI (U251 CNS) was > 100 µM and the TGI (MDA-N) was > 100 µM. The TGI (SF-539 CNS) was > 100 µM, the TGI (A498 renal) was > 100 µM and the TGI (HCC-2998 colon) was > 100 µM. The TGI (MALME-3M melanoma) was > 100 µM, the TGI (SK-OV-3 ovarian) was > 100 µM and the TGI (OVCAR-8 ovarian) was > 100 µM. For the same compound, the TGI (SK-MEL-2 melanoma) was > 100 µM, the TGI (OVCAR-4 ovarian) was > 100 µM and the TGI (COLO 205 colon) was > 100 µM. For the same compound, the TGI (EKVX NSCLC) was > 100 µM, the TGI (UACC-257 melanoma) was > 100 µM and the TGI (M14 melanoma) was > 100 µM. The TGI (NCI-H460 lung) was > 100 µM, the TGI (MOLT-4 leukemia) was > 100 µM and the TGI (HL-60(TB) leukemia) was > 100 µM. The TGI (KM12 colon) was > 100 µM, the TGI (HOP-92 NSCLC) was > 100 µM and the TGI (ACHN renal) was > 100 µM. For the same compound, the TGI (PC-3 prostate) was > 100 µM, the TGI (LOX IMVI melanoma) was > 100 µM and the TGI (SK-MEL-5 melanoma) was > 100 µM. For the same compound, the TGI (UACC-62 melanoma) was > 100 µM, the TGI (TK-10 renal) was > 100 µM and the TGI (CAKI-1 renal) was > 100 µM. For the same compound, the TGI (NCI-H226 lung) was > 100 µM, the TGI (MDA-MB-231 breast) was > 100 µM and the TGI (HCT-116 colon) was > 100 µM.
With O=C(NCCO)c1ccc(Cl)cc1 the TGI (DU-145 prostate) was > 100 µM, the TGI (UO-31 renal) was > 100 µM and the TGI (RXF 393 renal) was > 100 µM. The TGI (CCRF-CEM leukemia) was 90.2 µM, the TGI (HOP-62 NSCLC) was > 100 µM and the TGI (SW-620 colon) was > 100 µM. The TGI (OVCAR-5 ovarian) was > 100 µM, the TGI (IGROV1 ovarian) was > 100 µM and the TGI (NCI-H522 lung) was > 100 µM. For the same compound, the TGI (OVCAR-3 ovarian) was > 100 µM, the TGI (786-0 renal) was > 100 µM and the TGI (NCI/ADR-RES ovarian) was > 100 µM. For the same compound, the TGI (HCT-15 colon) was > 100 µM, the TGI (K-562 leukemia) was > 100 µM and the TGI (NCI-H23 lung) was > 100 µM. The TGI (SF-295 CNS) was > 100 µM, the TGI (SK-MEL-28 melanoma) was > 100 µM and the TGI (SNB-19 CNS) was > 100 µM. For the same compound, the TGI (SF-268 CNS) was > 100 µM, the TGI (SN12C renal) was > 100 µM and the TGI (A549 NSCLC) was > 100 µM. For the same compound, the TGI (SR leukemia) was > 100 µM, the TGI (SNB-75 CNS) was > 100 µM and the TGI (HS 578T breast) was > 100 µM. For the same compound, the TGI (T-47D breast) was > 100 µM, the TGI (MDA-MB-435) was > 100 µM and the TGI (HT29 colon) was > 100 µM. The TGI (U251 CNS) was > 100 µM, the TGI (MDA-N) was > 100 µM and the TGI (A498 renal) was > 100 µM. The TGI (HCC-2998 colon) was > 100 µM, the TGI (MALME-3M melanoma) was > 100 µM and the TGI (OVCAR-8 ovarian) was > 100 µM. The TGI (SK-MEL-2 melanoma) was > 100 µM, the TGI (OVCAR-4 ovarian) was > 100 µM and the TGI (BT-549 breast) was > 100 µM. For the same compound, the TGI (EKVX NSCLC) was > 100 µM, the TGI (UACC-257 melanoma) was > 100 µM and the TGI (M14 melanoma) was > 100 µM. For the same compound, the TGI (NCI-H460 lung) was > 100 µM, the TGI (MOLT-4 leukemia) was > 100 µM and the TGI (KM12 colon) was > 100 µM. For the same compound, the TGI (HOP-92 NSCLC) was > 100 µM, the TGI (ACHN renal) was > 100 µM and the TGI (PC-3 prostate) was > 100 µM. For the same compound, the TGI (LOX IMVI melanoma) was > 100 µM, the TGI (SK-MEL-5 melanoma) was > 100 µM and the TGI (UACC-62 melanoma) was > 100 µM. The TGI (TK-10 renal) was > 100 µM, the TGI (CAKI-1 renal) was > 100 µM and the TGI (NCI-H226 lung) was > 100 µM. The TGI (MDA-MB-231 breast) was > 100 µM and the TGI (HCT-116 colon) was > 100 µM.
In the case of CC1(C)C2CC(c3ccncc3)ON2C(C)(C)N1O (stereo unspecified), the TGI (DU-145 prostate) is reported as > 100 µM, the TGI (UO-31 renal) is reported as > 100 µM and the TGI (RXF 393 renal) is reported as > 100 µM. For the same compound, the TGI (MCF7 breast) was > 100 µM, the TGI (CCRF-CEM leukemia) was > 100 µM and the TGI (HOP-62 NSCLC) was > 100 µM. The TGI (SW-620 colon) was > 100 µM, the TGI (OVCAR-5 ovarian) was > 100 µM and the TGI (IGROV1 ovarian) was > 100 µM. For the same compound, the TGI (OVCAR-3 ovarian) was > 100 µM, the TGI (786-0 renal) was > 100 µM and the TGI (NCI/ADR-RES ovarian) was > 100 µM. For the same compound, the TGI (HCT-15 colon) was > 100 µM, the TGI (K-562 leukemia) was > 100 µM and the TGI (NCI-H23 lung) was > 100 µM. The TGI (SF-295 CNS) was > 100 µM, the TGI (SK-MEL-28 melanoma) was > 100 µM and the TGI (SNB-19 CNS) was > 100 µM. For the same compound, the TGI (SF-268 CNS) was > 100 µM, the TGI (SN12C renal) was > 100 µM and the TGI (A549 NSCLC) was > 100 µM. For the same compound, the TGI (SR leukemia) was > 100 µM, the TGI (RPMI-8226 leukemia) was > 100 µM and the TGI (SNB-75 CNS) was > 100 µM. For the same compound, the TGI (HS 578T breast) was > 100 µM, the TGI (T-47D breast) was > 100 µM and the TGI (MDA-MB-435) was > 100 µM. For the same compound, the TGI (HT29 colon) was > 100 µM, the TGI (U251 CNS) was > 100 µM and the TGI (MDA-N) was > 100 µM. For the same compound, the TGI (SF-539 CNS) was > 100 µM, the TGI (HCC-2998 colon) was > 100 µM and the TGI (MALME-3M melanoma) was > 100 µM. The TGI (SK-OV-3 ovarian) was > 100 µM, the TGI (OVCAR-8 ovarian) was > 100 µM and the TGI (SK-MEL-2 melanoma) was > 100 µM. For the same compound, the TGI (OVCAR-4 ovarian) was > 100 µM, the TGI (COLO 205 colon) was > 100 µM and the TGI (EKVX NSCLC) was > 100 µM. The TGI (UACC-257 melanoma) was > 100 µM, the TGI (M14 melanoma) was > 100 µM and the TGI (NCI-H460 lung) was > 100 µM. For the same compound, the TGI (MOLT-4 leukemia) was > 100 µM, the TGI (HL-60(TB) leukemia) was > 100 µM and the TGI (KM12 colon) was > 100 µM. For the same compound, the TGI (HOP-92 NSCLC) was > 100 µM, the TGI (ACHN renal) was > 100 µM and the TGI (PC-3 prostate) was > 100 µM. For the same compound, the TGI (LOX IMVI melanoma) was > 100 µM, the TGI (SK-MEL-5 melanoma) was > 100 µM and the TGI (UACC-62 melanoma) was > 100 µM. The TGI (TK-10 renal) was > 100 µM, the TGI (CAKI-1 renal) was > 100 µM and the TGI (NCI-H226 lung) was > 100 µM. The TGI (MDA-MB-231 breast) was > 100 µM and the TGI (HCT-116 colon) was > 100 µM.

From PubChem BioAssay (NCI)
